From PubChem BioAssay AID248 (DTP/NCI, 2004)
“And” between values parts separate entries of the source, which are not always exact repeats. Equal values may be shown once. Toxic doses and inconclusive results are not listed.

Test system: L1210 leukemia ip in BDF1 mice, survival T/C
Assay: NCI In Vivo Anticancer Drug Screen. Data for tumor model L1210 Leukemia (intraperitoneal) in B6D2F1 (BDF1) mice
Settings: higher = longer survival
Outline: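 Transplanted-tumor mice were given test agent; controls received vehicle only. Survival readings from the two groups were divided (treated over control).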

For `C[n+]1ccc(Nc2ccc(NC(=O)c3ccc(Nc4cc[n+](C)c5ccc(N)cc45)cc3)cc2)cc1`, the T/C (endpoint: mean survival time, dose: 0.5 mg/kg/injection, schedule: Q01DX009 (ip), vehicle: water) was 118 % of control, the T/C (endpoint: mean survival time, dose: 0.5 mg/kg/injection, schedule: Q01DX009 (sc), vehicle: water) was 151 % of control and the T/C (endpoint: mean survival time, dose: 1.0 mg/kg/injection, schedule: Q01DX009 (ip), vehicle: Klucel (hydroxypropylcellulose) (HPC)) was 112 % of control. For the same molecule, the T/C (endpoint: mean survival time, dose: 1.0 mg/kg/injection, schedule: Q01DX009 (sc), vehicle: Klucel (hydroxypropylcellulose) (HPC)) was 159 % of control, the T/C (endpoint: mean survival time, dose: 1.0 mg/kg/injection, schedule: Q01DX009 (sc), vehicle: water) was 110 % of control and 113 % of control and the T/C (endpoint: mean survival time, dose: 2.0 mg/kg/injection, schedule: Q01DX009 (ip), vehicle: Klucel (hydroxypropylcellulose) (HPC)) was 107 % of control. For the same molecule, the T/C (endpoint: mean survival time, dose: 2.0 mg/kg/injection, schedule: Q01DX009 (ip), vehicle: water) was 185 % of control and 204 % of control and 235 % of control, the T/C (endpoint: mean survival time, dose: 2.0 mg/kg/injection, schedule: Q01DX009 (sc), vehicle: water) was 175 % of control and the T/C (endpoint: mean survival time, dose: 4.0 mg/kg/injection, schedule: Q01DX009 (ip), vehicle: Klucel (hydroxypropylcellulose) (HPC)) was 118 % of control. For the same molecule, the T/C (endpoint: mean survival time, dose: 4.0 mg/kg/injection, schedule: Q01DX009 (ip), vehicle: water) was 234 % of control and 267 % of control and 272 % of control, the T/C (endpoint: mean survival time, dose: 4.0 mg/kg/injection, schedule: Q01DX009 (sc), vehicle: Klucel (hydroxypropylcellulose) (HPC)) was 200 % of control and the T/C (endpoint: mean survival time, dose: 4.0 mg/kg/injection, schedule: Q01DX009 (sc), vehicle: water) was 205 % of control and 224 % of control. For the same molecule, the T/C (endpoint: mean survival time, dose: 8.0 mg/kg/injection, schedule: Q01DX009 (ip), vehicle: Klucel (hydroxypropylcellulose) (HPC)) was 215 % of control, the T/C (endpoint: mean survival time, dose: 8.0 mg/kg/injection, schedule: Q01DX009 (ip), vehicle: water) was 175 % of control and 211 % of control and 252 % of control and the T/C (endpoint: mean survival time, dose: 8.0 mg/kg/injection, schedule: Q01DX009 (sc), vehicle: water) was 190 % of control and 222 % of control. For the same molecule, the T/C (endpoint: mean survival time, dose: 10.0 mg/kg/injection, schedule: Q01DX009 (oral), vehicle: Klucel (hydroxypropylcellulose) (HPC)) was 104 % of control, the T/C (endpoint: mean survival time, dose: 12.5 mg/kg/injection, schedule: Q04DX003 (ip), vehicle: saline with Tween-80) was 247 % of control and the T/C (endpoint: mean survival time, dose: 12.5 mg/kg/injection, schedule: Q04DX003 (ip), vehicle: saline) was 257 % of control. For the same molecule, the T/C (endpoint: mean survival time, dose: 16.0 mg/kg/injection, schedule: Q01DX009 (sc), vehicle: Klucel (hydroxypropylcellulose) (HPC)) was 176 % of control, the T/C (endpoint: mean survival time, dose: 16.0 mg/kg/injection, schedule: Q01DX009 (sc), vehicle: water) was 155 % of control and 171 % of control and the T/C (endpoint: mean survival time, dose: 20.0 mg/kg/injection, schedule: Q01DX009 (oral), vehicle: Klucel (hydroxypropylcellulose) (HPC)) was 105 % of control. For the same molecule, the T/C (endpoint: mean survival time, dose: 25.0 mg/kg/injection, schedule: Q04DX003 (ip), vehicle: saline with Tween-80) was 269 % of control, the T/C (endpoint: mean survival time, dose: 40.0 mg/kg/injection, schedule: Q01DX009 (oral), vehicle: Klucel (hydroxypropylcellulose) (HPC)) was 100 % of control and the T/C (endpoint: mean survival time, dose: 50.0 mg/kg/injection, schedule: Q04DX003 (ip), vehicle: saline with Tween-80) was 248 % of control. For the same molecule, the T/C (endpoint: mean survival time, dose: 50.0 mg/kg/injection, schedule: Q04DX003 (ip), vehicle: saline) was 253 % of control, the T/C (endpoint: mean survival time, dose: 75.0 mg/kg/injection, schedule: Q04DX003 (ip), vehicle: saline) was 227 % of control and the T/C (endpoint: mean survival time, dose: 80.0 mg/kg/injection, schedule: Q01DX009 (oral), vehicle: Klucel (hydroxypropylcellulose) (HPC)) was 105 % of control. The T/C (endpoint: mean survival time, dose: 160.0 mg/kg/injection, schedule: Q01DX009 (oral), vehicle: Klucel (hydroxypropylcellulose) (HPC)) was 101 % of control, the T/C (endpoint: median survival time, dose: 0.25 mg/kg/injection, schedule: Q03HX008 (ip), vehicle: water) was 103 % of control and 121 % of control and the T/C (endpoint: median survival time, dose: 0.25 mg/kg/injection, schedule: Q03HX016 (ip), vehicle: water) was 107 % of control and 116 % of control. The T/C (endpoint: median survival time, dose: 0.25 mg/kg/injection, schedule: Q03HX024 (ip), vehicle: water) was 112 % of control and 116 % of control, the T/C (endpoint: median survival time, dose: 0.5 mg/kg/injection, schedule: Q01DX005 (ip), vehicle: water) was 102 % of control and 124 % of control and the T/C (endpoint: median survival time, dose: 0.5 mg/kg/injection, schedule: Q01DX009 (ip), vehicle: water) was 112 % of control and 122 % of control. The T/C (endpoint: median survival time, dose: 0.5 mg/kg/injection, schedule: Q01DX009 (sc), vehicle: water) was 96 % of control and 100 % of control, the T/C (endpoint: median survival time, dose: 0.5 mg/kg/injection, schedule: Q03HX008 (ip), vehicle: water) was 112 % of control and the T/C (endpoint: median survival time, dose: 0.5 mg/kg/injection, schedule: Q03HX016 (ip), vehicle: water) was 119 % of control. The T/C (endpoint: median survival time, dose: 0.5 mg/kg/injection, schedule: Q03HX024 (ip), vehicle: water) was 150 % of control, the T/C (endpoint: median survival time, dose: 1.0 mg/kg/injection, schedule: Q01DX005 (ip), vehicle: water) was 117 % of control and the T/C (endpoint: median survival time, dose: 1.0 mg/kg/injection, schedule: Q01DX009 (sc), vehicle: water) was 101 % of control and 111 % of control. The T/C (endpoint: median survival time, dose: 1.0 mg/kg/injection, schedule: Q03HX016 (ip), vehicle: water) was 169 % of control, the T/C (endpoint: median survival time, dose: 1.0 mg/kg/injection, schedule: Q03HX024 (ip), vehicle: water) was 169 % of control and 186 % of control and the T/C (endpoint: median survival time, dose: 2.0 mg/kg/injection, schedule: Q01DX001 (sc), vehicle: water) was 97 % of control and 98 % of control. For the same molecule, the T/C (endpoint: median survival time, dose: 2.0 mg/kg/injection, schedule: Q01DX005 (ip), vehicle: water) was 179 % of control, the T/C (endpoint: median survival time, dose: 2.0 mg/kg/injection, schedule: Q01DX009 (ip), vehicle: water) was 177 % of control and 224 % of control and the T/C (endpoint: median survival time, dose: 2.0 mg/kg/injection, schedule: Q01DX009 (sc), vehicle: water) was 150 % of control. The T/C (endpoint: median survival time, dose: 2.0 mg/kg/injection, schedule: Q03HX008 (ip), vehicle: water) was 169 % of control, the T/C (endpoint: median survival time, dose: 2.0 mg/kg/injection, schedule: Q03HX016 (ip), vehicle: water) was 158 % of control and 213 % of control and the T/C (endpoint: median survival time, dose: 2.0 mg/kg/injection, schedule: Q03HX024 (ip), vehicle: water) was 197 % of control. The T/C (endpoint: median survival time, dose: 2.0 mg/kg/injection, schedule: Q04DX003 (ip), vehicle: water) was 114 % of control and 121 % of control, the T/C (endpoint: median survival time, dose: 2.0 mg/kg/injection, schedule: Q08DX002 (ip), vehicle: water) was 110 % of control and 113 % of control and the T/C (endpoint: median survival time, dose: 4.0 mg/kg/injection, schedule: Q01DX001 (ip), vehicle: water) was 110 % of control. The T/C (endpoint: median survival time, dose: 4.0 mg/kg/injection, schedule: Q01DX001 (sc), vehicle: water) was 95 % of control and 105 % of control, the T/C (endpoint: median survival time, dose: 4.0 mg/kg/injection, schedule: Q01DX005 (ip), vehicle: water) was 195 % of control and the T/C (endpoint: median survival time, dose: 4.0 mg/kg/injection, schedule: Q01DX009 (ip), vehicle: water) was 231 % of control. For the same molecule, the T/C (endpoint: median survival time, dose: 4.0 mg/kg/injection, schedule: Q01DX009 (sc), vehicle: water) was 183 % of control and 222 % of control, the T/C (endpoint: median survival time, dose: 4.0 mg/kg/injection, schedule: Q03HX008 (ip), vehicle: water) was 202 % of control and the T/C (endpoint: median survival time, dose: 4.0 mg/kg/injection, schedule: Q03HX016 (ip), vehicle: water) was 229 % of control and 261 % of control. For the same molecule, the T/C (endpoint: median survival time, dose: 4.0 mg/kg/injection, schedule: Q03HX024 (ip), vehicle: water) was 201 % of control and 247 % of control, the T/C (endpoint: median survival time, dose: 4.0 mg/kg/injection, schedule: Q04DX003 (ip), vehicle: water) was 124 % of control and the T/C (endpoint: median survival time, dose: 4.0 mg/kg/injection, schedule: Q08DX002 (ip), vehicle: water) was 116 % of control and 124 % of control. For the same molecule, the T/C (endpoint: median survival time, dose: 8.0 mg/kg/injection, schedule: Q01DX001 (ip), vehicle: water) was 121 % of control, the T/C (endpoint: median survival time, dose: 8.0 mg/kg/injection, schedule: Q01DX001 (sc), vehicle: water) was 105 % of control and 113 % of control and the T/C (endpoint: median survival time, dose: 8.0 mg/kg/injection, schedule: Q01DX005 (ip), vehicle: water) was 211 % of control. The T/C (endpoint: median survival time, dose: 8.0 mg/kg/injection, schedule: Q01DX009 (sc), vehicle: water) was 178 % of control, the T/C (endpoint: median survival time, dose: 8.0 mg/kg/injection, schedule: Q04DX003 (ip), vehicle: water) was 164 % of control and the T/C (endpoint: median survival time, dose: 8.0 mg/kg/injection, schedule: Q08DX002 (ip), vehicle: water) was 153 % of control. For the same molecule, the T/C (endpoint: median survival time, dose: 16.0 mg/kg/injection, schedule: Q01DX001 (sc), vehicle: water) was 105 % of control, the T/C (endpoint: median survival time, dose: 16.0 mg/kg/injection, schedule: Q01DX009 (sc), vehicle: water) was 95 % of control and the T/C (endpoint: median survival time, dose: 32.0 mg/kg/injection, schedule: Q01DX001 (sc), vehicle: water) was 165 % of control. The T/C (endpoint: median survival time, dose: 64.0 mg/kg/injection, schedule: Q01DX001 (sc), vehicle: water) was 192 % of control and 267 % of control.
